Measurements published in patent US6787566B2, “Breakers of advanced glycation endproducts” (City of Hope, priority 1999, dated 2004).
“Also recorded” adds a separate entry of the source.

Tests used:
Format in all cases: biochemical
[1] = target: T1, cross-linked collagen-AGE-BSA (Rattus norvegicus, UniProt P02454+P02466); test: AGE-BSA-collagen ELISA: cleavage of glycated BSA cross-linked to collagen; settings: for AGE-breaking activity (cleavage of cross-linked collagen-AGE-BSA), in words: 0.1-10 mM final concentration, FIGS. 1A and 1C; for Concentration dependence of AGE-BSA-collagen crosslink breaking, in words: FIGS. 1A-C; for Overall AGE-breaking property, in words: overall judgement of the patent's tests
T1 construct: purchased Biocoat (Collaborative Research, Bedford, Mass.) for the collagen-coated plates; Sigma Chemical co. for bovine serum albumin
T1 sequence (P02454 152-1207 limits assumed): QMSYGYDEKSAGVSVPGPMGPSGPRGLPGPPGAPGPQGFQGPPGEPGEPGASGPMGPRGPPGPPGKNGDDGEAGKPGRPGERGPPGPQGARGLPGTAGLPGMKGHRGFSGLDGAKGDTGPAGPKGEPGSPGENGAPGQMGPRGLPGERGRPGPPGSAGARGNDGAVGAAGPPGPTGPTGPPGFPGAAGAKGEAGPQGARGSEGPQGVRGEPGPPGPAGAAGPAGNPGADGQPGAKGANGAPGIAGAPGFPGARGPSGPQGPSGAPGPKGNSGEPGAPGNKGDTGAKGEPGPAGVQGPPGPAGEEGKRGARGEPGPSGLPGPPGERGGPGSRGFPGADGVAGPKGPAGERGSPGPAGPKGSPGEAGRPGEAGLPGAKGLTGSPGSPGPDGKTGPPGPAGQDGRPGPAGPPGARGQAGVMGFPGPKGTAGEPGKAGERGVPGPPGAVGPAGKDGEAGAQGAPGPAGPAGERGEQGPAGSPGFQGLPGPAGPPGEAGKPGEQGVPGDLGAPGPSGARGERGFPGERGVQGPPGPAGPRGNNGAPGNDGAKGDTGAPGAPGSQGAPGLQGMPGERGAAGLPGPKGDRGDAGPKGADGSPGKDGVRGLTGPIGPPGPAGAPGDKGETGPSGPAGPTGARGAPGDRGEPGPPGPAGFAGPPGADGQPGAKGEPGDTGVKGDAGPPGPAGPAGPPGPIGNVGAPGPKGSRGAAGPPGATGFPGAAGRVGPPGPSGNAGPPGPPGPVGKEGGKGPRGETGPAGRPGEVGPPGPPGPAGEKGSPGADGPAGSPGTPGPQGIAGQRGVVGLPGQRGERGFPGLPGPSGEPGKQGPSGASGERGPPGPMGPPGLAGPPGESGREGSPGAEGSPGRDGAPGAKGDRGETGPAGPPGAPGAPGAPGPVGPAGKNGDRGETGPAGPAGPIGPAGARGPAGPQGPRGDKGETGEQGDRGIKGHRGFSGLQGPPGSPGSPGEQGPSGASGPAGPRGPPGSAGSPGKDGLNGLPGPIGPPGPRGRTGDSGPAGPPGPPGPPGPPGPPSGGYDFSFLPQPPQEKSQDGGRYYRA
T1 sequence (P02466 86-1125 limits assumed): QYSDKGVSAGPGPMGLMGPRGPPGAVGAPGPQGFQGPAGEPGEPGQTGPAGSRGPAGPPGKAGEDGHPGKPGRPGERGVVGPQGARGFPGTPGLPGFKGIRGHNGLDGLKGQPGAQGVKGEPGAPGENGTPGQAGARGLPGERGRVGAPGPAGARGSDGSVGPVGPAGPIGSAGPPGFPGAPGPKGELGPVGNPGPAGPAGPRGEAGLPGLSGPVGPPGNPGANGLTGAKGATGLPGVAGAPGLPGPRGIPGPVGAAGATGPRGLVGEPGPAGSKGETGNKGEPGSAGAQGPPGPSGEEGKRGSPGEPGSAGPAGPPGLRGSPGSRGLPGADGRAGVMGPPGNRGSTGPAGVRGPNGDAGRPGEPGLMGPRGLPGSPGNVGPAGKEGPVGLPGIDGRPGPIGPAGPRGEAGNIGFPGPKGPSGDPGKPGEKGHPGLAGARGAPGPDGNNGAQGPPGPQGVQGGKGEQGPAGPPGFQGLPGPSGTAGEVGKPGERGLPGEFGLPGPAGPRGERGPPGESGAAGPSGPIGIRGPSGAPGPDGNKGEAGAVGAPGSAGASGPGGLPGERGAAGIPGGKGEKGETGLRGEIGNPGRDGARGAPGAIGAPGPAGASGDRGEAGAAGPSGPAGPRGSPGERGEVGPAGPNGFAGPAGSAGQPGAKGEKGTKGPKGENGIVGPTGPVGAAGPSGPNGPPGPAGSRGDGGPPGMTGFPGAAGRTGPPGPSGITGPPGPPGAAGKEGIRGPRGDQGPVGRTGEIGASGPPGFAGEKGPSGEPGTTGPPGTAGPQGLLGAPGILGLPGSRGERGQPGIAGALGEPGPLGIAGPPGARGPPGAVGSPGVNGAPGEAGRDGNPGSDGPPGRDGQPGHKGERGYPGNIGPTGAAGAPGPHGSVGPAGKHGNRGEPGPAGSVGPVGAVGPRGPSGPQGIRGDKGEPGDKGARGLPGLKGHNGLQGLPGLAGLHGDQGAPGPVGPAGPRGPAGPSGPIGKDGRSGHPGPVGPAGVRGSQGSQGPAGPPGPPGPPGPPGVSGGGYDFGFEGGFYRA
Method: In vitro evaluation of the ability of the AGE-breaker compounds to cleave and break cross-linking of glycated BSA (AGE-BSA) (prepared as described (Rahbar et al., 1999)) to the rat-tail-tendon-collagen was by a special ELISA (Vasan et al., 1996). The rat-tail-tendon-collagen coated plates were first blocked first with 300 μL of Superblock blocking buffer (Pierce Chemicals, Rockford, Ill.) for one hour. The blocking solution was removed from the wells by washing the plates twice with PBS-0.05% Tween 20 (PBS-T) using a Dynatech ELISA-plate washer. Cross-linking of various concentrations of AGE-BSA (0, 0.01, 0.05, 0.1, 0.25, 0.50, and 1.0 μg per well) to rat-tail-collagen coated plates was performed without the testing compound, and the plates were incubated for 5 hours at 37° C. After washing the wells three times with PBS-T to remove the unattached AGE-BSA, test concentrations of the compound (50 μL/well) dissolved in PBS were added to wells in triplicate and incubation continued at 37° C. overnight. After washing with PBS-T, the amount of BSA remaining attached to the tail collagen plate was then quantified by addition of rabbit anti-BSA polyclonal antibodies (50 μL/well) for 1 hour at 37° C. The wells were then washed three times with PBS-T and developed with the chromogenic substrate ABTS (100 μL/well). Absorbance was measured at 410 nm in microplate reader (BioRad, Hercules, Calif.).
The percentage breaking activity is calculated by the following formula: 100×[(A410, PBS control)−(A410, AGE-breaker compound)]/[A410, PBS control].

[2] = target: T2, AGE cross-links in tail tendon collagen of diabetic rats (Rattus norvegicus, UniProt P02454+P02466); test: Tendon collagen solubility in weak acid after in vitro treatment; settings: for Acid Solubility Test (% increase in solubility): relative to untreated collagen of diabetic rats
T2 construct: collagen was isolated from the tail tendon of diabetic and normal controls; from tissue; host or cells: tail tendon of streptozotocin-diabetic male Sprague-Dawley rats
T2 sequence (P02454 152-1207 limits assumed): as the sequence (P02454 152-1207 limits assumed) above
T2 sequence (P02466 86-1125 limits assumed): as the sequence (P02466 86-1125 limits assumed) above
Method: For this study, diabetes was first induced in male Sprague-Dawley rats (Charles River, Wilmington, Mass.) weighing about 150-175 g by injection of streptozotocin (65 mg/kg, i.p.). […] Tail tendons were dissected free of adhering tissues, washed thoroughly in PBS containing protease inhibitors (1 mM each of EDTA, PMSF, iodoacetamide and benzamidine hydrochloride), patted dry onto a paper towel, rolled into a ball, freeze dried, and stored at −20° C. in sealed containers until used.
Representative samples of tail tendon collagen were pulled from its bulk and were cut approximately 20-25 mm in size. The samples were then placed inside 1.5 mL microfuge tubes and suspended with 1 mL of the desired concentration of the AGE-breaker compound in PBS buffer (pH 7.4) containing 0.02 g/L NaN3. Untreated control tubes include tail tendon collagen and PBS buffer only. The tubes were incubated at 37° C. for 24 hours. After incubation, the tubes were centrifuged at 10,000 rpm and the supernatants discarded. The collagen samples were rinsed with PBS, vortexed thoroughly, centrifuged briefly, and the supernatant discarded. This rinsing was repeated twice. On final rinse, the supernatant was discarded and the tubes inverted for one minute for the samples to air dry. These collagen samples were used immediately in the acid solubility and digestion studies.
For determination of the amount of acid-insoluble collagen in samples treated and untreated with the AGE-breaker compound, 5 mg aliquots of dried tail-tendon collagen from diabetic and non-diabetic rats, all in duplicates, were added to 2 mL of 0.05 M acetic acid and stirred at 4° C. for 24 hours. The mixture was homogenized in a polytron homogenizer and stirred for an additional 24 hours at 4° C. The suspension was then centrifuged at 9000×g for 60 minutes at 4° C. The collagen in the clear supernatant was defined as the acid soluble collagen, and the gel-like pellet as the acid insoluble collagen.

[3] = target: T2, AGE cross-links in tail tendon collagen of diabetic rats; test: Total pepsin digestion assay, collagen-linked fluorescence; settings: for Pepsin Digestion Assay (% decrease in fluorescence): relative to untreated collagen of diabetic rats
Method: For this study, diabetes was first induced in male Sprague-Dawley rats (Charles River, Wilmington, Mass.) weighing about 150-175 g by injection of streptozotocin (65 mg/kg, i.p.). […] Thirty-two weeks later, the rats are sacrificed and collagen was isolated from the tail tendon of diabetic and normal controls as described by Kochakian et al. (1996). Tail tendons were dissected free of adhering tissues, washed thoroughly in PBS containing protease inhibitors (1 mM each of EDTA, PMSF, iodoacetamide and benzamidine hydrochloride), patted dry onto a paper towel, rolled into a ball, freeze dried, and stored at -20° C. in sealed containers until used. Representative samples of tail tendon collagen were pulled from its bulk and were cut approximately 20-25 mm in size. […] Untreated control tubes include tail tendon collagen and PBS buffer only. The tubes were incubated at 37° C. for 24 hours. After incubation, the tubes were centrifuged at 10,000 rpm and the supernatants discarded. The collagen samples were rinsed with PBS, vortexed thoroughly, centrifuged briefly, and the supernatant discarded. This rinsing was repeated twice. On final rinse, the supernatant was discarded and the tubes inverted for one minute for the samples to air dry. These collagen samples were used immediately in the acid solubility and digestion studies. […] The clear supernatant containing digested collagen was collected and used for collagen-linked fluorescence. […] Fluorescence of the samples was quantified at 365 nm excitation and 418 nm emission. All fluorescence values were corrected for fluorescence of the pepsin in phosphate buffer and expressed as arbitrary units per micromoles of hydroxyproline content of the collagen sample. The hydroxyproline content of each collagen sample was measured following acid hydrolysis, using a microassay method as described ([…] et al., 1997). […] The tubes were autoclaved in a steam sterilizer at 250° F. for 3.5 hours. The samples were taken to dryness using a Savant Speed Vac concentrator with heat, and stored at 4° C. until assayed. The dried samples were rehydrated with 200 μL deionized water, and aliquots were assayed for their hydroxyproline content in a 96-well microtiter plate as described by […] et al. (1997).

[4] = target: T2, AGE cross-links in tail tendon collagen of diabetic rats; test: Papain digestibility assay, collagen-linked fluorescence; settings: for Papain digestion Assay (% decrease in fluorescence): relative to untreated collagen of diabetic rats
Method: For this study, diabetes was first induced in male Sprague-Dawley rats (Charles River, Wilmington, Mass.) weighing about 150-175 g by injection of streptozotocin (65 mg/kg, i.p.). […] Thirty-two weeks later, the rats are sacrificed and collagen was isolated from the tail tendon of diabetic and normal controls as described by Kochakian et al. (1996). Tail tendons were dissected free of adhering tissues, washed thoroughly in PBS containing protease inhibitors (1 mM each of EDTA, PMSF, iodoacetamide and benzamidine hydrochloride), patted dry onto a paper towel, rolled into a ball, freeze dried, and stored at -20° C. in sealed containers until used. Representative samples of tail tendon collagen were pulled from its bulk and were cut approximately 20-25 mm in size. […] Untreated control tubes include tail tendon collagen and PBS buffer only. The tubes were incubated at 37° C. for 24 hours. After incubation, the tubes were centrifuged at 10,000 rpm and the supernatants discarded. The collagen samples were rinsed with PBS, vortexed thoroughly, centrifuged briefly, and the supernatant discarded. This rinsing was repeated twice. On final rinse, the supernatant was discarded and the tubes inverted for one minute for the samples to air dry. These collagen samples were used immediately in the acid solubility and digestion studies. […] Digests were centrifuged at 10,000 rpm for 60 minutes at 4° C., and the supernatant separated from the pellet. […] Aliquots of the supernatant digests were also subjected to acid hydrolysis followed by hydroxyproline measurements. The results were expressed as fluorescence units per micromole of hydroxyproline content of each sample. Percent decrease in fluorescence was calculated as above. […] The tubes were autoclaved in a steam sterilizer at 250° F. for 3.5 hours. The samples were taken to dryness using a Savant Speed Vac concentrator with heat, and stored at 4° C. until assayed. The dried samples were rehydrated with 200 μL deionized water, and aliquots were assayed for their hydroxyproline content in a 96-well microtiter plate as described by […] et al. (1997).

Row | Compound | AGE-breaking activity (cleavage of cross-linked collagen-AGE-BSA), in words [1] | Acid Solubility Test (% increase in solubility) ([2]; 0.1 mM) [%] | Acid Solubility Test (% increase in solubility) ([2]; 1.0 mM) [%] | Acid Solubility Test (% increase in solubility) ([2]; 10 mM) [%] | Pepsin Digestion Assay (% decrease in fluorescence) ([3]; 0.1 mM) [%] | Pepsin Digestion Assay (% decrease in fluorescence) ([3]; 1.0 mM) [%] | Pepsin Digestion Assay (% decrease in fluorescence) ([3]; 10 mM) [%] | Papain digestion Assay (% decrease in fluorescence) ([4]; 0.1 mM) [%] | Papain digestion Assay (% decrease in fluorescence) ([4]; 1.0 mM) [%] | Papain digestion Assay (% decrease in fluorescence) ([4]; 10 mM) [%] | Concentration dependence of AGE-BSA-collagen crosslink breaking, in words [1] | Overall AGE-breaking property, in words [1] | Collagen solubility in weak acid, in words ([2]; collagen of diabetic rats, P<0.05 for LR23, FIG. 2B) | AGE-linked fluorescence of collagen after pepsin digestion, in words ([3]; collagen of diabetic rats, P<0.05 for LR23, FIG. 3B) | AGE-linked fluorescence of collagen after papain digestion, in words ([4]; collagen of diabetic rats, P<0.05 for LR23, FIG. 4B) | Overall AGE-breaking property, in words ([1]; listed as metformin)
1 | 4-[(3,5-dichlorophenylureidophenoxyisobutyryl]-4-aminobenzoic acid [LR99] | very effective AGE-breakers | 1.6 | 7.3 | 16.0 | 9.8 | 16.1 | 12.6 | 23.5 | 35.9 | 63.6 |  |  |  |  |  | 
2 | CC(C)(Oc1ccc(NC(=O)Nc2cc(Cl)cc(Cl)c2)cc1)C(=O)NC1(C(=O)O)CCCCC1 [LR23, 4-(3,5-dichlorophenylureido)phenoxyisobutyryl-1-amidocyclohexane-1-carboxylic acid] | very effective AGE-breakers | 18.3 | 19.4 | 32.7 | 7.3 | 15.5 | 18.7 | 16.7 | 25.9 | 47.2 | more effective breakers at higher concentrations | most effective AGE-breakers | significantly increased solubility | reduced the AGE-linked fluorescence | reduced the AGE-linked fluorescence | 
3 | CN(C)C(=N)NC(=N)N [Metformin, 1,1-dimethylbiguanide, reference compound] |  |  |  |  |  |  |  |  |  |  | more potent at lower concentrations; also recorded: highly effective at low concentrations | moderate AGE-breaking properties |  |  |  | moderate AGE-breaker
4 | L-bis-[4-(4-chlorobenzamidophenoxyisobutyryl)cystine] [LR20] | very effective AGE-breakers | 1.5 | 7.3 | 24.0 | 7.1 | 8.9 | 27.8 | 18.3 | 18.4 | 24.3 | more effective breakers at higher concentrations |  |  |  |  | 
